In patent publication EP1075277B2, “METHODS FOR DETECTING AND INHIBITING ANGIOGENESIS” (The Regents of the University of California, priority 1998, dated 2012):
“Also recorded” adds a separate entry of the source.

Legend:
[1] = tested on: HT29 colon carcinoma cells lacking α5β1 expression; test: Chick CAM tumor assay, HT29; format: in vivo; details: antibody 25 µg topically; for effect on tumor size (in words): peptide or small molecule 25 µM intravenously
Method: The chick CAM tumor assay was performed by placing ten million tumor cells on the surface of a CAM, and culturing the cells for one week. The resulting tumors were excised and cut into 50 mg fragments. […] Forty-eight hours later, CAM's were excised from the egg and the number of blood vessels entering the tumors were counted (as vessel branch points) .
Data was presented as mean blood vessel number per treatment group (+/- standard error of measurement). Each treatment group incorporated at least ten tumors per experiment. Representative tumors were photographed at 10X magnification. Tumors were excised from the egg and tumor weights were determined for each tumor. Data was presented as mean tumor weight per treatment group (+/- standard error of measurement). Statistical analyses were performed using Student's t-test.
HT29 colon carcinoma cells lacking α5β1 expression were grown on the CAM's of 10-day old embryos. These tumor cells secrete several angiogenic growth factors, including VEGF, TGFα, TGFβ, TNFα, and IL-8 (Anzano et al., Cancer Res. 49:2898-2904 (1989); Varner et. al., supra, 1995; Ellis et al., J. Biol. Chem. 273:1052-1057 (1998)). Integrin α5β1 negative tumor cells were used to distinguish the potential anti-tumor effects from anti-vasculature effects of integrin α5β1 antagonists.

[2] = tested on: integrin α5β1 positive cells, including α5β1 HT29 colon carcinoma cells, CEF's, and HUVEC's; test: Cell adhesion assay on fibronectin, results in words for the α5β1 positive cells together; format: cell-based; details: antibodies 50 µg/ml, cyclic peptides 10 µM, SJ749 0-10 µM
Description: (§1) HT29 integrin α5β1 cells, integrin α5β1 colon carcinoma cells (Varner et al., Mol. Biol. Cell 6:725-740 (1995)), and chick embryo fibroblasts (CEF's) were maintained in DMEM high glucose supplemented with 10% fetal bovine serum (FBS) and gentamycin. Human umbilical vein endothelial cells (HWEC's) were maintained in M199 medium containing sodium bicarbonate, HEPES, heparin, endothelial cell growth supplement, 20% FBS and gentamycin. Culture media and reagents were from Irvine Scientific (Irvine, CA).
(§2) The wells of 48 well culture dishes (Costar, Inc.) were coated with 1 µg/ml vitronectin, 2 µg/ml fibronectin (chick embryo fibroblasts and HUVEC's) or 10 µg/ml fibronectin (HT29-α5^+ cells) for 1 hr at 37°C, then blocked with 2% heat denatured BSA in PBS for 1 hr. […]
(§3) Cells were allowed to adhere to dishes for 20 min at 37°C. […] Crystal violet was extracted by incubation for 15 min in 10% acetic acid and absorbance at 562 nm determined as an indicator of number of cells bound. […]

[3] = tested on: blood vessel branch points in chorioallantoic membranes (CAM's); test: In ovo chick chorioallantoic membrane (CAM) angiogenesis assay; format: in vivo; details: for effect on bFGF-induced angiogenesis (in words): bFGF stimulated CAM
Description: Ten day old embryonated chicken eggs (McIntyre Poultry; Ramona CA) were candled to illuminate blood vessels under the shell and an area with a minimum of small blood vessels is identified. The CAM was dropped away from the eggshell in this area by grinding a small hole in the mineralized shell and applying pressure to the underlying inner shell membrane. This procedure caused an air pocket to shift from the wide end of the egg to the identified area and forcing a circular region of the CAM approximately 2 cm in diameter to drop away from the shell. A window was cut in the egg shell and a cortisone acetate pre-treated filter disc 5 mm in diameter that had been saturated in 1 µg/ml bFGF, VEGF, TNFα, IL-8 (Genzyme, Inc.; Cambridge MA) or saline was placed on the CAM. The window in the shell was sealed with adhesive tape and the egg was incubated for four days.
Anti-fibronectin antibodies (25 µg in 25 µl) also were applied topically to the CAM.
Fibronectin, vitronectin and fibronectin fragments (59 pmol in a final volume of 25 µl) were applied to stimulated or unstimulated CAM's. Peptide or small molecule antagonists of α5β1 (at a final serum concentration of 0-25 µM) also were injected intravenously into the chick circulation 24 hr later. CAM's were harvested on the fourth day of stimulation. Blood vessel branch points in the 5 mm filter disk area were counted at 30 X magnification in a blinded fashion as a size-independent quantitative indicator of vascular sprouting in response to growth factors. Angiogenesis is characterized by the sprouting of new vessels in response to growth factors. Thus, counting of blood vessel branch points is a useful quantitative means of obtaining an angiogenic index (Brooks et al., In "Methods in Molecular Biology" (Humana Press 1999). At least ten embryos were used per treatment group. Each experiment was performed a minimum of three times.
Data was evaluated in terms of average number of blood vessel branch points per treatment group +/- standard error of measurement. Statistical analyses were performed using Student's t-test. […]

[4] = tested on: α5β1 HT29 colon carcinoma cells, CEF's, and HUVEC's; test: Cell adhesion assay on vitronectin; format: cell-based; details: 1 µg/ml vitronectin coat
Description: as §1, §2, §3

[5] = target: T1, α5β1 receptor purified from human placenta (Homo sapiens, UniProt P05556+P08648); test: Integrin receptor ligand binding assay, α5β1 / fibronectin; details: biotinylated fibronectin
T1 construct: α5β1 receptor purified from human placenta; purchased Chemicon International; host or cells: human placenta (tissue-purified)
Method: (§4) Integrin αVβ3 and α5β1 receptor purified from human placenta were obtained from Chemicon International. Platelet integrin αIIbβ3 was purified from platelets according to established procedures. Receptors were coated (100 µl/well) on Costar (3590) high capacity binding plates overnight at 4°C. Coating solution was discarded and plates were washed once with blocking/binding (B/B) buffer (50 mM Tris HCl, pH 7.4, 100 mM NaCl, 2mM CaCl2, 1 mM MgCl2, 1 mM MnCl2 and 1% BSA).
(§5) One hundred ten microliters of B/B buffer was applied for 60 min at RT. Thirty µl of biotinylated extracellular matrix protein ligand (fibronectin for integrin α5β1, vitronectin for integrin αVβ3 and fibrinogen for integrin αIIbβ3) plus 50 µl of either SJ749 in B/B buffer or B/B buffer alone were added to each well, and incubated for 25 min at RT. Plates were washed twice with B/B buffer and incubated 1 hr at RT, with anti-biotin alkaline phosphatase (100 µl/well) in B/B buffer. Finally, plates were washed twice with B/B followed by the addition of 100 µl of phosphatase substrate (1.5 mg/ml). Reaction was stopped by adding 2N NaOH (25 µl/well), and the developed color was read at 405 nm.

[6] = target: T2, Integrin αVβ3 (Homo sapiens, UniProt P05106+P06756); test: Integrin receptor ligand binding assay, αVβ3 / vitronectin; details: biotinylated vitronectin for αVβ3
T2 construct: Integrin αVβ3 and α5β1 receptor purified from human placenta; purchased Chemicon International; host or cells: human placenta (tissue-purified, as the sentence is read)
Method: as §4, §5

[7] = tested on: α5^+ HT29 cells; test: Cell adhesion assay on fibronectin, HT29-α5+ cells; format: cell-based; details: Homo sapiens, HT-29, 0-10 µM SJ749, Figure 1, read-out: half maximal inhibitory concentration, adhesion to fibronectin
Description: as §1, §2, §3

[8] = tested on: HUVEC's; test: Cell migration assay (transwell); format: cell-based, human; details: 4 hr at 37°C
Method: The Lower side of 8 µm pore transwell inserts (Costar, Inc.) were coated with 2 µg/ml of fibronectin, collagen (Collaborative Biomedical Products; Bedford MA) or no protein for 1 hr and were blocked with 2% BSA in PBS for 1 hr. The inserts then were placed into 24 well culture dishes containing 500 µl migration buffer in the lower chamber. Twenty-five thousand HUVEC's in 50 µl of migration buffer (HEPES buffered M199 medium containing 1% BSA, 2 mM MgCl2, 2 mM CaCl2 and 0.2 mM MnCl2) were added to the upper chamber of duplicate inserts containing 50 µl of a solution of 50 µg/ml of anti-α5β1 function blocking antibody (NKI-SAM-1, JBS5 or IIA1), 50 µ/ml of anti-α5β1 non-function blocking antibody (HA5 or VC5), or 50 µg/ml of LM609 (an anti-αVβ3 function blocking antibody) in migration buffer, or migration buffer alone.
Cells were allowed to migrate from the upper to the lower chamber for 4 hr at 37°C. Nonmigratory cells were removed from the upper surface by wiping the upper side with an absorbant tip, and cells that had migrated to the lower side of the transwell insert were fixed for 15 min with 3.7% paraformaldehyde in PBS, then stained with a 2% crystal violet solution. After extensive water washing to remove excess crystal violet, the number of cells that had migrated were counted in three representative high power (200X) fields per insert. […]

T1 sequence (P08648 42-894 limits assumed): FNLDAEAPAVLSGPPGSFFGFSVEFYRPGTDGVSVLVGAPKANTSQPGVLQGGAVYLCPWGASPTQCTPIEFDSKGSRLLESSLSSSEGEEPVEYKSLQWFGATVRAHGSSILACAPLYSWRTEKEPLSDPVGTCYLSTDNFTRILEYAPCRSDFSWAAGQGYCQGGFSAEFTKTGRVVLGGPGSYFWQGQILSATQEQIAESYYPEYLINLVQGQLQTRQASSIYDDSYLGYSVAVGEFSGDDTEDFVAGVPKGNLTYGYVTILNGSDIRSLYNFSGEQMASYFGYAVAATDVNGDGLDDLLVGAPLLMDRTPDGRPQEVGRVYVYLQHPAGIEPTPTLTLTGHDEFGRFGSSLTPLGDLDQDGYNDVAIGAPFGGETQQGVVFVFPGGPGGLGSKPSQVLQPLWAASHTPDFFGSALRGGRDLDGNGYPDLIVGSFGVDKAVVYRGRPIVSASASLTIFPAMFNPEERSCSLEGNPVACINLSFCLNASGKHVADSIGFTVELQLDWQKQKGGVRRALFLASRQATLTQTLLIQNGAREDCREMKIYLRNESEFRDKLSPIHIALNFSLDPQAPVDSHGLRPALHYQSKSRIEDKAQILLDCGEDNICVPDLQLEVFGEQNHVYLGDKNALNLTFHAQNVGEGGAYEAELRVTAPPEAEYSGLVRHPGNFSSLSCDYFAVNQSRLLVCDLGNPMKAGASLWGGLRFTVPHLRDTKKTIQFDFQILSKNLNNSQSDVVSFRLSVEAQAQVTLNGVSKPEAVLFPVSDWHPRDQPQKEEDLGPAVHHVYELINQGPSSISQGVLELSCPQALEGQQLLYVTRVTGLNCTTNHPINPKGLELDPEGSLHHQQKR
T1 sequence (P08648 895-1049 partner limits assumed): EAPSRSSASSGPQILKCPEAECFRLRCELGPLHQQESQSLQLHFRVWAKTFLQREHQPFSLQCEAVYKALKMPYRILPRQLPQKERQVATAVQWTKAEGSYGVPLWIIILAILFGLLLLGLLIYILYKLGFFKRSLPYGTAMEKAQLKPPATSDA
T1 sequence (P05556 21-798): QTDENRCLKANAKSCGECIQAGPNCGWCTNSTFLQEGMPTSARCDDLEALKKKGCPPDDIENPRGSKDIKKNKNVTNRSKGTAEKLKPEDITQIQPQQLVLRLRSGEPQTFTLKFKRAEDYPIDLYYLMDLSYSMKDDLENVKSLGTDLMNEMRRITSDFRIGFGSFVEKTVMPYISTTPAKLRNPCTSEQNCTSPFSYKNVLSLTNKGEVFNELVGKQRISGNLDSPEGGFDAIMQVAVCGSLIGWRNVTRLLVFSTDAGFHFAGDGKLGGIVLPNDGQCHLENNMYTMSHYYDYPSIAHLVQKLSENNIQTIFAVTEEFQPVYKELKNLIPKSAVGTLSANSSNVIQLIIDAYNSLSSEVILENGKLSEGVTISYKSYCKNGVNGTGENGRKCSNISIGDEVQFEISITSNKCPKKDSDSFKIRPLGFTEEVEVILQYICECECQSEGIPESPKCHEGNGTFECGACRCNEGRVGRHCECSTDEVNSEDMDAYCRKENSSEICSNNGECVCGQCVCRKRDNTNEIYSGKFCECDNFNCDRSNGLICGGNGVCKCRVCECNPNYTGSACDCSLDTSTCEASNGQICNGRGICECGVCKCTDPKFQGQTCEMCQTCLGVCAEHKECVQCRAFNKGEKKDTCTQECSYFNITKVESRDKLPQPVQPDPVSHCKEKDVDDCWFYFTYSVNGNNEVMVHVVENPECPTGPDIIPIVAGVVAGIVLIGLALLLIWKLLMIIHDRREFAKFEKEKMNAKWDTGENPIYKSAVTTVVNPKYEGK
T2 sequence (P06756 31-889 limits assumed): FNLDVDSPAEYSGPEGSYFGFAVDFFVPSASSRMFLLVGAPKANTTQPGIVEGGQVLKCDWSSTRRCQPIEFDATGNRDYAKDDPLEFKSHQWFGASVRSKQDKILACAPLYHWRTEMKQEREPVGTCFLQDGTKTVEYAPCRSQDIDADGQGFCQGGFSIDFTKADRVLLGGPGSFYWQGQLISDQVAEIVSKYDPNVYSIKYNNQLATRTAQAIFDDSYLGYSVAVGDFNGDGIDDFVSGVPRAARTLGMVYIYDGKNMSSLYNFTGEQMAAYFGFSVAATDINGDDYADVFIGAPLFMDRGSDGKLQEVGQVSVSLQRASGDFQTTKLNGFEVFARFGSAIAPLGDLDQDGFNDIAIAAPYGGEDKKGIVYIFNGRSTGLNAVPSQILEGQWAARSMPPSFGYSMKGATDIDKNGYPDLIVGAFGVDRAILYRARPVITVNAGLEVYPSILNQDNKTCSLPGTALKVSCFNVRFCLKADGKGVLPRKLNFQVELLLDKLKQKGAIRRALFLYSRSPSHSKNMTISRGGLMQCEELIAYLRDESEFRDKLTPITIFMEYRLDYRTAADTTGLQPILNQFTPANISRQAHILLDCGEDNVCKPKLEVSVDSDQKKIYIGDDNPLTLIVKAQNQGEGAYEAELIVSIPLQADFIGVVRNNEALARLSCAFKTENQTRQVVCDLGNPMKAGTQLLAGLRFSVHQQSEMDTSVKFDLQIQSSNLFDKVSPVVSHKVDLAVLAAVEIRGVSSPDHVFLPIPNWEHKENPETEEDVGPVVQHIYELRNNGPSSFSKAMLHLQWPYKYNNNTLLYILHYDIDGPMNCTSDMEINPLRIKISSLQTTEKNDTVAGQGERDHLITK
T2 sequence (P06756 891-1048 partner limits assumed): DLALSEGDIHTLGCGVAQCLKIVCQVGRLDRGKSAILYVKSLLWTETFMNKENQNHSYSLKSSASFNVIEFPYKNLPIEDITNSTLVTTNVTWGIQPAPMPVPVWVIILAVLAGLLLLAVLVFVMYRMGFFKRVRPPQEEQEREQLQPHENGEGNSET
T2 sequence (P05106 27-788): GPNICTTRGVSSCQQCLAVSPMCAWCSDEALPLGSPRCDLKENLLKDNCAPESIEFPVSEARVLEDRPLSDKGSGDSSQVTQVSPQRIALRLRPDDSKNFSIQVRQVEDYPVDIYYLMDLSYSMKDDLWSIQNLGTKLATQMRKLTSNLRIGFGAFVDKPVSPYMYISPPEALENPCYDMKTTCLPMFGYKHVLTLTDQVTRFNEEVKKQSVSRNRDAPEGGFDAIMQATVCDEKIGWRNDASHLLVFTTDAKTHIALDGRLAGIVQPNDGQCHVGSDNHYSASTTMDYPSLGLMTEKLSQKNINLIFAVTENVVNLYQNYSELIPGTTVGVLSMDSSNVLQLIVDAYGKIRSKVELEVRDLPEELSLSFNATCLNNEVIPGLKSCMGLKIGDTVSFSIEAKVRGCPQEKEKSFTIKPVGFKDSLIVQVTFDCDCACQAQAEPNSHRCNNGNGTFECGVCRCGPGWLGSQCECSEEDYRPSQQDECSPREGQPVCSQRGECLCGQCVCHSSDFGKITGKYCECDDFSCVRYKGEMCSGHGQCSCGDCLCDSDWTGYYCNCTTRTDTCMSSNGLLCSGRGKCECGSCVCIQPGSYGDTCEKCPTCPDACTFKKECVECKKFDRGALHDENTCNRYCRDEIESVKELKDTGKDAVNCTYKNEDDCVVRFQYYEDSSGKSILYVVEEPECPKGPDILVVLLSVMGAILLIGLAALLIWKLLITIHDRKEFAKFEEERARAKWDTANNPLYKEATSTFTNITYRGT

Compound | effect on tumor size (in words) [1] | effect on cell adhesion to fibronectin (in words) [2] | effect on bFGF-induced angiogenesis (in words) [3] | effect on cell attachment to vitronectin (in words) [4] | tumors smaller than control treated tumors ([1]; peptide or SJ749 25 µM final serum concentration intravenously) [%] | effect on ligand binding to α5β1 (in words) [5] | effect on VEGF-induced angiogenesis (in words) ([3]; VEGF stimulated CAM) | effect on ligand binding to αVβ3 and other integrins (in words) [6] | IC50 [7] [µM] | effect on endothelial cell migration on fibronectin (in words) [8] | effect on endothelial cell migration on other matrix proteins, including collagen (in words) [8]
CATAERWRC | continued to increase in size | little effect on cell adhesion to either fibronectin or vitronectin | did not inhibit angiogenesis | little effect on cell adhesion to either fibronectin or vitronectin | – | – | – | – | – | – | –
Cc1cc(C)c(S(=O)(=O)N[C@@H](CNC(=O)C2=NOC3(C2)CC(CNc2ccccn2)N(C(=O)OCc2ccccc2)C3)C(=O)O)c(C)c1 (stereo partly drawn) [SJ749] | induced tumor regression on the CAM | blocked the adhesion of these cells to fibronectin in a concentration-dependent manner; also recorded: inhibitory effect | blocked bFGF-induced angiogenesis on chick CAM's in a dose-dependent manner when applied either topically or systemically; also recorded: dose dependent inhibitory effect; also recorded: reduced or inhibited angiogenesis in a dose dependent manner | ineffective in blocking cell attachment to vitronectin or other extracellular matrix ligands | 51 | selectively inhibited ligand binding to α5β1; also recorded: interfered with α5β1 binding to fibronectin | did not block VEGF angiogenesis | substantially less effective in blocking ligand binding to αVβ3 and other integrins | 0.8 | highly effective in blocking endothelial cell migration on fibronectin | but not on other matrix proteins such as collagen
